Blank lines part the entries; values can stand above or below the molecule they belong to.
Tests used:
[1] = target: T1, CSA/Cat K complex (Homo sapiens, UniProt P43235); experiment: Fluoresceinamine-labeled CSA/Cat K complex formation fluorescence assay; assay type: binding; details: 120 nM Cat K; 0.6 μg/ml FL-CSA; excitation 300 nm, emission 604 nm
T1 construct: may comprise the native mature cathepsin K peptide
T1 sequence (P43235 115-329): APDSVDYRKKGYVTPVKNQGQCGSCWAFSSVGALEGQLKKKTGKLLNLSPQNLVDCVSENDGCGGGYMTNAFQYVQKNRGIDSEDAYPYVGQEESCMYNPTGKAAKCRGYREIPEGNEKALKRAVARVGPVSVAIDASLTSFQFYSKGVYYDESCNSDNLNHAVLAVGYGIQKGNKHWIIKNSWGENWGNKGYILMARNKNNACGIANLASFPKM
Description: Curve 1: 120 nM Cat K, then 0.6 μg/ml FL-CSA, and then 3 μg/ml dextran sulfate; Curve 2:,0.6 μg/ml FL-CSA, then 120 nM Cat K, and then 3 μg/ml dextran sulfate.
The pH was adjusted to pH 11 by addition of 5 M NaOH. […] The mixture was kept overnight at 4° C. for the coupling reaction. Subsequently, the mixture was concentrated to 1 ml using a SpeedVac concentrator and purified on a PD-10 column and eluded by 50 mM sodium acetate buffer, pH 5.5.
Cat K at a final concentration of 120 nM was added to 1 ml 100 mM sodium acetate buffer, pH 5.5 containing 2 mM EDTA/DTT using 2 milliliter cuvettes. The fluorescence signal for the protein alone is close to zero. […] After the addition of complex formation inhibitors, the fluorescence signal dropped to zero (FIG. 1). This assay allows the simple and convenient screening of compounds capable to interfere with complex formation.

[2] = target: T2, cathepsin K (Homo sapiens, UniProt P43235); experiment: Superdex 200 gel filtration of cathepsin K preincubated with polymers; assay type: binding; details: for elution volume (Ve) of the complex with cathepsin K: 30 μg cathepsin K preincubated with 0.15% polymer, Superdex 200, no NaCl; for effect on CSA/cathepsin K complex formation: 0.15% test substance + 0.15% CSA, gel filtration; for formation of a high molecular weight complex with cathepsin K: 0.15% test substance without CSA
T2 construct: may comprise the native mature cathepsin K peptide
T2 sequence (P43235 115-329): T1 sequence (P43235 115-329)
Description: The elution buffer was 100 mM sodium acetate, pH 5.5, 1 mM EDTA/DTT.
The protein elution was recorded at OD280 nm and fractions were assayed for the hydrolysis of the cathepsin K substrate Z-Leu-Arg-MCA. […] The sample was loaded into the well of a 0.5% agarose gel and separated at room temperature at 55 V, 250 mA for 30 min in a running buffer containing 125 mM sodium acetate, pH 5.0,0.5 mM EDTA, 1 mM DTT, 40 mM NaCl, and 0.1% Chaps. The gel was dried and subsequently exposed to an X-ray film. The conditions for lane 3 were modified by the addition of 300 mM NaCl into the agarose gel and running buffer. […] Activity assays were performed using Z-LR-MCA as substrate in 100 mM sodium acetate buffer, pH 5.5, containing 2.5 mM EDTA/DTT and 0.5 nM recombinant human cathepsin K.
30 μg of cathepsin K were preincubated with elution buffer containing 0.15% low molecular fraction (V3 67.2 ml) of dermatan sulfate (DS) 0.15% 2-15 kD poly-D-Glu, or 0.15% 10 kD dextran sulfate for 20 min, and then applied to a Superdex 200 column. The elution buffer was 100 mM sodium acetate, pH 5.5, containing 1 mM EDTA/DTT.
(§1) The elution buffer was 100 mM sodium acetate, pH 5.5, 1 mM EDTA/DTT. […] The reaction was stopped by the addition of 10 μM E-64 and the samples were analyzed by 4-20% SDS-Page.
as §1, §1, §1

[3] = Mobility shift assay of complex formation of proteases with CSA; assay type: binding; details: 50 ng [125I]DCG-04 labeled protease; 0.1% CSA
Description: The gel was run at about 25° C. 55 V, 250 mA for 30 min, then dried and developed the radio signal on a film.

[4] = target: T3, cathepsin K/CSA complex (Homo sapiens, UniProt P43235); experiment: Soluble type I collagen digestion by cathepsin K, analysed by SDS-PAGE; assay type: biochemical; details: 28° C.; for effect on type I collagen degradation by cathepsin K in the presence of CSA: 0.15% test substance + 0.15% CSA, 800 nM cathepsin K; for collagenase activity of the complex formed with cathepsin K (type I collagen): 0.15% polymer, pH 5.5
T3 construct: may comprise the native mature cathepsin K peptide
T3 sequence (P43235 115-329): T1 sequence (P43235 115-329)
Description: Soluble type I bovine collagen was digested with 800 nM cathepsin K at 28° C., in 100 mM sodium acetate buffer pH 5.5, containing 2.5 mM EDTA/DTT. The reaction was stopped by the addition of 10 μM E-64 after various time periods and the samples were analyzed by 4-20% SDS-Page. […] The reaction was stopped by the addition of 10 μM E-64 after 8 h of incubation and the samples were analyzed by 4-20% SDS-polyacrylarnide electrophoresis.
Soluble type I bovine collagen was digested with 800 nM purified recombinant human cathepsin K and gelatin (soluble type I collagen was heated for 20 min at 70 C) with 0.5 nM cathepsin K at 28° C. and 37 C, in 100 mM sodium acetate buffer, pH 5.5, containing 2.5 mM EDTA/DTT. […] The reaction was stopped by the addition of 10 μM E-64 after 8 h of incubation and the samples were analyzed by 4-20% SDS-polyacrylamide electrophoresis.
The reactions were stopped by the addition of 10 μM E-64 and the samples were analyzed by 4-20% SDS-Page.
as §1, §1
The reaction was stopped by the addition of 10 μM E-64 and the samples were analyzed by 4-20% SDS-Page.
as §1, §1

[5] = target: T2, cathepsin K; experiment: Agarose gel electrophoretic mobility shift assay of cathepsin K complexes; assay type: binding; details: for effect on CSA/cathepsin K complex formation: 0.15% test polymer + 0.15% CSA, mobility shift; for affinity to cathepsin K relative to CSA: inferred from competition with 0.15% CSA
Description: The protein elution was recorded at OD280 nm and fractions were assayed for the hydrolysis of the cathepsin K substrate Z-Leu-Arg-MCA. […] The gel was dried and subsequently exposed to an X-ray film. […] Activity assays were performed using Z-LR-MCA as substrate in 100 mM sodium acetate buffer, pH 5.5, containing 2.5 mM EDTA/DTT and 0.5 nM recombinant human cathepsin K.
After exposure of the dried gel to an X-ray film, the signal of free cathepsin K was densitometrically determined and the amount of cathepsin K in the complex was calculated (cat Kcompley=cat Ktotal−cat Kfree).
Samples were subsequently mixed with non-reducing protein sample buffer, DNA dye, and melted agarose gel (melted at 37 C; 0.4% final concentration) at 37 C and embedded into a pre-made wells of a 0.5% agarose gel (running conditions: 25° C.; 55 V, 250 mA for 30 min). The gel was stained with toluidine blue for glycosaminoglycans and coomassie blue for protein.

Molecule: poly-alanine
- effect on fluorescence signal of FL-CSA/Cat K complex [1]: did not show any effect

Molecule: Cat L: human cathepsin L, closely related cysteine protease
- complex formation with CSA [3]: Only cathepsin K formed a stable complex

Molecule: poly-D-Glu
- effect on CSA/cathepsin K complex formation [5]: blocked
- affinity to cathepsin K relative to CSA [5]: bind with a higher affinity to cathepsin K than CSA
- collagenase activity of the complex formed with cathepsin K (type I collagen) [4]: did not exhibit collagenase activity
- effect on type I collagen degradation by cathepsin K in the presence of CSA [4]: prevents the degradation of type I collagen
- elution volume (Ve) of the complex with cathepsin K [2]: 14.2 mL
- effect on CSA/cathepsin K complex formation [2]: prevented the formation of a cathepsin K/CSA complex

Molecule: poly-lysine
- effect on fluorescence signal of FL-CSA/Cat K complex [1]: did not show any effect

Molecule: [Cl-].[Na+] [NaCl]
- effect on cathepsin K/CSA complex ([5]; 300 mM NaCl in agarose gel and running buffer, 0.1% CSA): the complex dissociated
- effect on cathepsin K complex formation ([2]; elution in the presence of 300 mM NaCl, cathepsin K/CSA mixture): inhibits the formation of cathepsin K complexes

Molecule: dextran
- effect on type I collagen degradation by cathepsin K in the presence of CSA [4]: identical
- effect on fluorescence signal of FL-CSA/Cat K complex [1]: did not show any effect
- formation of a high molecular weight complex with cathepsin K [2]: did not form a high molecular weight complex with cathepsin K

Second part, led by results:

- effect on fluorescence signal of FL-CSA/Cat K complex [1]: decrease the fluorescence signal
Molecule: heparan sulfate

- effect on fluorescence signal of FL-CSA/Cat K complex [1]: decrease the fluorescence signal
- elution volume (Ve) of the complex with cathepsin K [2]: 14 mL
Molecule: dermatan sulfate

- effect on type I collagen degradation by cathepsin K in the presence of CSA [4]: identical
- effect on fluorescence signal of FL-CSA/Cat K complex [1]: did not show any effect
- effect on CSA/cathepsin K complex formation [2]: did not interfere with complex formation
Molecule: CC(=O)N[C@H]1C(O)O[C@H](CO)[C@H](OS(=O)(=O)O)[C@@H]1O[C@@H]1OC(C(=O)O)=C[C@H](O)[C@H]1O (stereo partly drawn) [CSA disaccharide, chondroitin disaccharide-4S]
- formation of a high molecular weight complex with cathepsin K [2]: unable to generate high-molecular complexes with cathepsin K

- effect on fluorescence signal of FL-CSA/Cat K complex [1]: decrease the fluorescence signal
Molecule: poly-aspartic acid

- effect on CSA/cathepsin K complex formation [5]: blocked
- collagenase activity of the complex formed with cathepsin K (type I collagen) [4]: did not exhibit collagenase activity
- effect on fluorescence signal of FL-CSA/Cat K complex [1]: decrease the fluorescence signal
- elution volume (Ve) of the complex with cathepsin K [2]: 13.5 mL
Molecule: dextran sulfate
- affinity to cathepsin K relative to CSA [5]: bind with a higher affinity to cathepsin K than CSA
- effect on type I collagen degradation by cathepsin K in the presence of CSA [4]: prevents the degradation of type I collagen
- effect on CSA/cathepsin K complex formation [2]: prevented the formation of a cathepsin K/CSA complex

- effect on fluorescence signal of FL-CSA/Cat K complex [1]: decrease the fluorescence signal
Molecule: poly-glutamic acid
